Reference: patent US12319655B2, “RAF kinase inhibitors and methods of use thereof” (Deciphera Pharmaceuticals, LLC, priority 2021, dated 2025)

Columns and labels:
[1] = system: WM3928 cells; assay: WM3928 Cell Proliferation Assay (1); format: cell-based
In short: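 IC50 was derived from resazurin fluorescence (ex 540, em 600 nm) after a 6–7 h dye incubation. Before that, cells had 67–72 h of compound exposure at 37 °C, 5% CO2.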

[2] = target: C-Raf kinase (SEQ. ID NO: 3) (Homo sapiens (Human), UniProt P04049, Y340D/Y341D); assay: Biochemical Assay for C-Raf (1); details: Table J, assay version (1); read-out: CRAF (1) IC50
In short: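 IC50 values come from a four-parameter fit of percent inhibition, using the reaction rate over 4–5 h of a 6 h continuous 340 nm read at 30 °C. The enzyme mix was C-Raf 0.43 nM, MEK substrate 30.1 nM and ATP 1 mM, in a PK/LDH NADH-coupled format in Tris pH 7.5 with 1% DMSO.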

[3] = target: A-Raf kinase (SEQ. ID No: 1) (Homo sapiens (Human), UniProt P10398, Y301D/Y302D); assay: Biochemical Assay for A-Raf (1); details: Table J, assay version (1); read-out: ARAF (1) IC50
In short: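 IC50 values were derived by four-parameter sigmoidal fitting of percent inhibition, calculated from reaction rates over the 4–5 h window. Absorbance at 340 nm was tracked for 6 h at 30 °C via coupled PK/LDH NADH depletion. Conditions: 1 mM ATP, 30.1 nM MEK substrate, 5.55 nM A-Raf (Y301D/Y302D), Tris pH 7.5, 1% DMSO.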

[4] = system: A375 cells; assay: A375 Cell Proliferation Assay (1); format: cell-based; details: Homo sapiens, A-375
In short: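 Resazurin fluorescence (excitation 540 nm, emission 600 nm, after a further 5-6 h) gave IC50s from triplicate compound dilution series.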

Chain of C-Raf kinase (SEQ. ID NO: 3) (P04049 307-648 Y340D/Y341D): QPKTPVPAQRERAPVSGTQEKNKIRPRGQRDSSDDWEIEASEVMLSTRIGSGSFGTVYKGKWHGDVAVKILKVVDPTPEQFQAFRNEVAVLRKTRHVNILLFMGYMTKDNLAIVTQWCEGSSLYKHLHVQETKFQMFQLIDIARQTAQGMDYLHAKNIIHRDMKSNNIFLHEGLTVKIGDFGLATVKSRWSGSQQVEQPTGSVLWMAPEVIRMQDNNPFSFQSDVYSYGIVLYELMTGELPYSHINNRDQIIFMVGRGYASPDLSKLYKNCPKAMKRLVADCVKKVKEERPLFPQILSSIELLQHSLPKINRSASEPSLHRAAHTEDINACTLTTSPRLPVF
Chain of A-Raf kinase (SEQ. ID No: 1) (P10398 other isoform, or with tags, fused parts or gaps Y301D (already in the parent)/Y302D (already in the parent)): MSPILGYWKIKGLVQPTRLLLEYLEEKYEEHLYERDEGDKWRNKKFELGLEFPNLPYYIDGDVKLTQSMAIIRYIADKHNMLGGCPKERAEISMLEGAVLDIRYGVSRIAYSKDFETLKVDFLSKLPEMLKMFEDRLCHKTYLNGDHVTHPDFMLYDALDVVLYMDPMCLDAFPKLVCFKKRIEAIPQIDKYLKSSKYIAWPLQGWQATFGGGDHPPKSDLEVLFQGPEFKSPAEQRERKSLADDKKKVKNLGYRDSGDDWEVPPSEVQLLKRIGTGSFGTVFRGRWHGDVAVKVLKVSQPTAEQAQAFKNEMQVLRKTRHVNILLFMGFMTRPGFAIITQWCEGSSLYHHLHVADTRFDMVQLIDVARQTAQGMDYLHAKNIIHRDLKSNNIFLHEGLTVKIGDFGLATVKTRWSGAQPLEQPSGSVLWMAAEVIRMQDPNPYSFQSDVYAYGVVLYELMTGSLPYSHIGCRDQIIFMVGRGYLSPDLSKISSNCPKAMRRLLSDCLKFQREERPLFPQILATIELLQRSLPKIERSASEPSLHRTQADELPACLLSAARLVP

SMILES | IC50 [1] [nM] | IC50 [2] [nM] | IC50 [3] [nM] | IC50 [4] [nM]
Cc1ccc(NC(=O)c2ccnc(C(C)(C)F)c2)cc1-c1cc(-c2ccnc(NC(=O)C3CC3)c2)cnn1 [Example 315] | ≤ 100 | ≤ 100 | 500 to 1000 | ≤ 100
Cc1ccc(NC(=O)c2cn(C(C)C)nn2)cc1-c1cc(-c2ccnc(NC(=O)C3CC3)c2)cnn1 [Example 320] | 1000 to 10000 | ≤ 100 | 1000 to 10000 | 1000 to 10000
Cc1ccc(NC(=O)c2cnn(C(C)(C)C)c2)cc1-c1cc(-c2ccnc(NC(=O)C3CC3)c2)cnn1 [Example 321] | 100 to 500 | ≤ 100 | 1000 to 10000 | 100 to 500
COC(=O)Nc1cc(-c2cc(-c3cc(NC(=O)c4ccnc(C(C)(C)F)c4)cnc3C)ccn2)ccn1 [Example 323] | 100 to 500 | ≤ 100 | 1000 to 10000 | 100 to 500
CNC(=O)c1cc(-c2cnnc(-c3cc(NC(=O)c4ccnc(C(C)(C)F)c4)ccc3C)c2)ccn1 [Example 325] | 500 to 1000 | 100 to 500 | 1000 to 10000 | 100 to 500
CNC(=O)c1cc(-c2cnnc(-c3cc(NC(=O)c4ccnc(C5CC5)c4)ccc3C)c2)ccn1 [Example 326] | 1000 to 10000 | ≤ 100 | 1000 to 10000 | 1000 to 10000
CNC(=O)c1cc(-c2cnnc(-c3cc(NC(=O)c4ccnc(C(F)F)c4)ccc3C)c2)ccn1 [Example 327] | 1000 to 10000 | ≤ 100 | 1000 to 10000 | 1000 to 10000
CNC(=O)c1cc(-c2cnnc(-c3cc(NC(=O)c4ccnc(C(C)(C)OC)c4)ccc3C)c2)ccn1 [Example 328] | 1000 to 10000 | 100 to 500 | 1000 to 10000 | 100 to 500
CNC(=O)c1cc(-c2cnnc(-c3cc(NC(=O)c4ccc(F)c(C(F)(F)F)c4)ccc3C)c2)ccn1 [Example 329] | 1000 to 10000 | ≤ 100 | 1000 to 10000 | 500 to 1000
Cc1ccc(NC(=O)c2ccnc(C3CC3)c2)cc1-c1cc(-c2ccnc(NC(=O)C3CC3)c2)cnn1 [Example 331] | 500 to 1000 | ≤ 100 | 1000 to 10000 | 100 to 500
Cc1ccc(NC(=O)c2ccnc(S(C)(=O)=O)c2)cc1-c1cc(-c2ccnc(NC(=O)C3CC3)c2)cnn1 [Example 332] | 1000 to 10000 | ≤ 100 | 1000 to 10000 | 1000 to 10000
CO[C@H]1CC[C@H](C(=O)Nc2ccc(C)c(-c3ccnc(-c4ccnc(NC(=O)C5CC5)c4)n3)c2)CC1 [Example 341] | 1000 to 10000 | ≤ 100 | 1000 to 10000 | 1000 to 10000
Cc1ncc(NC(=O)C2CCOC(C)(C)C2)cc1-c1cccc(-c2cc(NC(=O)C3CC3)ncn2)c1 (stereo not drawn) [Example 348] | 1000 to 10000 | ≤ 100 | 1000 to 10000 | 1000 to 10000
CNC(=O)c1cc(-c2cc(-c3cc(NC(=O)COCC4CC4)ccc3C)ccn2)ccn1 [Example 358] | 1000 to 10000 | ≤ 100 | 1000 to 10000 | 1000 to 10000
COC(=O)Nc1cc(-c2cnnc(-c3cc(NC(=O)COCC4CC4)ccc3C)c2)ccn1 [Example 360] | 1000 to 10000 | 100 to 500 | 1000 to 10000 | 1000 to 10000
CNC(=O)c1cc(-c2cnnc(-c3cc(NC(=O)c4ccnc(C(F)(F)F)c4)ccc3C)c2)ccn1 [Example 364] | 1000 to 10000 | 100 to 500 | 1000 to 10000 | 1000 to 10000
Cc1ccc(NC(=O)C2CCOC(C(C)C)C2)cc1-c1cc(-c2ccnc(NC(=O)C3CC3)c2)cnn1 (stereo not drawn) [Example 370] | 1000 to 10000 | ≤ 100 | 1000 to 10000 | 1000 to 10000
CNC(=O)c1cc(-c2cc(-c3cc(NC(=O)c4ccnc(C(C)(C)F)c4)ccc3C)cnc2C)ccn1 [Example 371] | 100 to 500 | 100 to 500 | 1000 to 10000 | 100 to 500
